Literature values as cited in patent US5973199A, “Hydrosoluble organic salts of creatine” (priority 1994, dated 1999).

Legend:
[1] = not given; remark: listed apart in the source

**Q.** With `CN(CC(=O)O)C(=N)N` [creatine, N-(aminoiminomethyl)-N-methylglycine] as the compound, how does the “creatine half-life in plasma” value read?
**A.** 1 to 1.5 h

**Q.** And the “tolerability of high doses” value ([1]; high doses of 5-10 g (mean body weights of 70 kg))?
**A.** well tolerated

**Q.** And the toxicity ([1]; in vivo)?
**A.** lack of toxicity
